Measurements reported in ChEMBL document CHEMBL5316345, “Discovery of the Potent and Selective MC4R Antagonist PF-07258669 for the Potential Treatment of Appetite Loss” (J Med Chem, 2023).
The source made the active and inactive calls. The calls are words filed in the database; no cut-off is given here.

How the values were obtained:
[1] = target: cAMP and cAMP-inhibited cGMP 3',5'-cyclic phosphodiesterase 10A (Homo sapiens, UniProt Q9Y233); assay: Inhibition of human PDE10A1
Mus musculus [2] = assay: Effect on body weight in anorexia/cachexia mouse model assessed as cumulative body weight gain at 3 mg/kg, po administered twice a day for 20 days and measured at 1 to 21 days; format: functional; conditions: time 1-21 day
[3] = target: Dual specificity calcium/calmodulin-dependent 3',5'-cyclic nucleotide phosphodiesterase 1B (Homo sapiens, UniProt Q01064); assay: Inhibition of human PDE1B1
Chain of Dual specificity calcium/calmodulin-dependent 3',5'-cyclic nucleotide phosphodiesterase 1B (Q01064 whole entry): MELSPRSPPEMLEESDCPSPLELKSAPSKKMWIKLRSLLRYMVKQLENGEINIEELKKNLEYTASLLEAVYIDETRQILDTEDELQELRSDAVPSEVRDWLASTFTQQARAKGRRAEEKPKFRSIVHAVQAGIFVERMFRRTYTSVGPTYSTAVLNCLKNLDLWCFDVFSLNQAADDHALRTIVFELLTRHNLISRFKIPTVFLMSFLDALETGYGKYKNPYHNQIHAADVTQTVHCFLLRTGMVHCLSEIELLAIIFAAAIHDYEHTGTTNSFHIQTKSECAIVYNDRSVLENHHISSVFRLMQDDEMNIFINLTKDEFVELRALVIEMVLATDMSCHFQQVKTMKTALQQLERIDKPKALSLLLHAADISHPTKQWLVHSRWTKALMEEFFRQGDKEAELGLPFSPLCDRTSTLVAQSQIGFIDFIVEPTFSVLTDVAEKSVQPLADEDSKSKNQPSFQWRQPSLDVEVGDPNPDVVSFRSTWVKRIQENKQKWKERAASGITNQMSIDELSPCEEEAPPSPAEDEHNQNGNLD

[4] = AUC (0 to infinity) in Beagle dog at 1 mg/kg, iv measured at 0.033 to 24 hrs by LC-MS/MS analysis; format: ADME, organism-based, Canis lupus familiaris; set-up: time upper 24 hrs, dose 1 mg/kg, time lower 0.033 hrs, route iv; conditions: in vivo
[5] = target: Sodium channel protein type 5 subunit alpha (Homo sapiens, UniProt Q14524); assay: Inhibition of recombinant human Nav1.5 expressed in CHO cells by whole cell voltage clamp electrophysiology recording; format: cell-based
[6] = target: cGMP-dependent 3',5'-cyclic phosphodiesterase (Homo sapiens, UniProt O00408); assay: Inhibition of human PDE2A1
Chain of cGMP-dependent 3',5'-cyclic phosphodiesterase (O00408 whole entry): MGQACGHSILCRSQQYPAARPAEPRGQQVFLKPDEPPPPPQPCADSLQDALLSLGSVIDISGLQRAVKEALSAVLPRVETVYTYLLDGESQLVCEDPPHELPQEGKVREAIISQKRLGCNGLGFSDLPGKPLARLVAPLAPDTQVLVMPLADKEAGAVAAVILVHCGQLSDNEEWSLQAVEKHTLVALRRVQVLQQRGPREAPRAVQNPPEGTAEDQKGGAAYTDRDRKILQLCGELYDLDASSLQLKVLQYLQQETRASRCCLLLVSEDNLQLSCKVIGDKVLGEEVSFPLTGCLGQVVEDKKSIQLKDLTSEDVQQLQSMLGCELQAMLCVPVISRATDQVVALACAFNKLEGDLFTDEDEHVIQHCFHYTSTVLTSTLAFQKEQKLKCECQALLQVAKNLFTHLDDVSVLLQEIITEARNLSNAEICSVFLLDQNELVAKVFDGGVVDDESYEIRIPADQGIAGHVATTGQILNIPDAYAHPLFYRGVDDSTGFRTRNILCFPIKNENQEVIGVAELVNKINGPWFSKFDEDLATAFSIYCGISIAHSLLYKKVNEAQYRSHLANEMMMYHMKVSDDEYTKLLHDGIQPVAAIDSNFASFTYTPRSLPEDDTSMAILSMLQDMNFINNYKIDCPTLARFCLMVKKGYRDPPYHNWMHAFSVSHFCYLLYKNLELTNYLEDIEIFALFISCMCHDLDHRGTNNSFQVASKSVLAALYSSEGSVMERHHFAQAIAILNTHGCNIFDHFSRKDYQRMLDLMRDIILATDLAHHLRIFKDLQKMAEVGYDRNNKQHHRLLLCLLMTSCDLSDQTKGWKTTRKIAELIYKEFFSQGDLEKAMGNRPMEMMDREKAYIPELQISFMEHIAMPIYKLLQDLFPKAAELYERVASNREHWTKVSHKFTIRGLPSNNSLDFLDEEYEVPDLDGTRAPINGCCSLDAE

[7] = Clearance in Beagle dog plasma at 1 mg/kg, iv measured at 0.033 to 24 hrs by LC-MS/MS analysis; format: ADME, organism-based, Canis lupus familiaris; conditions: time 0.033-24 hrs
[8] = Cmax in Wistar Han rat at 5 mg/kg, po measured at 0.083 to 24 hrs by LC-MS/MS analysis; format: ADME, organism-based; set-up: dose 5 mg/kg, time upper 24 hrs, time lower 0.083 hrs, route po; conditions: in vivo
[9] = target: cGMP-specific 3',5'-cyclic phosphodiesterase (Homo sapiens, UniProt O76074); assay: Inhibition of human PDE5A1
[10] = target: Adrenocorticotropic hormone receptor (Homo sapiens) (UniProt Q01718); assay: Agonist activity at human MC2R expressed in CHO cells assessed as increase in alpha-MSH induced cAMP level measured for 60 mins; format: functional, cell-based
Chain of Adrenocorticotropic hormone receptor (Homo sapiens) (Q01718 whole entry): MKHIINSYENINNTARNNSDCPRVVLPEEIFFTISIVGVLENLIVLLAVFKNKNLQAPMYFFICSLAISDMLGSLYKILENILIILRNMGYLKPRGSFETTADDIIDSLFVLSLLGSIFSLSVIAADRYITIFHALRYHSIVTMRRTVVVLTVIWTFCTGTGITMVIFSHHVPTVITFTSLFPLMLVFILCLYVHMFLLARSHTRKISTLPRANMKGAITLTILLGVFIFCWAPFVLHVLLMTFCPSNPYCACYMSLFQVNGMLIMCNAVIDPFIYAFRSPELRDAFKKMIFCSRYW

[11] = AUClast in Beagle dog at 1 mg/kg, iv measured at 0.033 to 24 hrs by LC-MS/MS analysis; format: ADME, organism-based, Canis lupus familiaris; set-up: dose 1 mg/kg, time 0.033-24 hrs, route iv; conditions: in vivo
Mus musculus [12] = assay: Effect on body weight in anorexia/cachexia mouse model assessed as reduction in cumulative food intake at 0.3 mg/kg, po administered twice a day for 20 days and measured at 1 to 21 days; format: functional; set-up: scale not given: the % may be the effect or the level left; conditions: time 1-21 day
[13] = target: 3',5'-cyclic-AMP phosphodiesterase 7B (Homo sapiens, UniProt Q9NP56); assay: Inhibition of human PDE7B
Chain of 3',5'-cyclic-AMP phosphodiesterase 7B (Q9NP56 whole entry): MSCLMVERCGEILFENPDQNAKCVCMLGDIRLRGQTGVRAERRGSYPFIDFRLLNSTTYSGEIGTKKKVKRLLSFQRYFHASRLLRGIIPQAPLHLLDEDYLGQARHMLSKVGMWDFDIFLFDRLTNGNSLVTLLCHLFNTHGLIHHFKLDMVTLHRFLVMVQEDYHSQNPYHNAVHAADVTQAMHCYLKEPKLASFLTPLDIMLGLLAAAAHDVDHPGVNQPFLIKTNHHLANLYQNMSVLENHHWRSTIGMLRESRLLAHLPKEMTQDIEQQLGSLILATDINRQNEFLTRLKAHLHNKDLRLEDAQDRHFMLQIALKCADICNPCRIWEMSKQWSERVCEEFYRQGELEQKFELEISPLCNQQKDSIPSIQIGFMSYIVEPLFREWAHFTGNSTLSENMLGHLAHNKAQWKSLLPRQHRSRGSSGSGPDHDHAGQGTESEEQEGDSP

[14] = Half life in Beagle dog at 1 mg/kg, iv measured at 0.033 to 24 hrs by LC-MS/MS analysis; format: ADME, organism-based, Canis lupus familiaris; conditions: in vivo, time 0.033-24 hrs
Mus musculus [15] = assay: Effect on body weight in anorexia/cachexia mouse model assessed as reduction in cumulative food intake at 3 mg/kg, po administered twice a day for 20 days and measured at 1 to 21 days; format: functional; set-up: scale not given: the % may be the effect or the level left; conditions: time 20 day
[16] = target: High affinity cAMP-specific and IBMX-insensitive 3',5'-cyclic phosphodiesterase 8B (Homo sapiens, UniProt O95263); assay: Inhibition of human PDE8B
[17] = Lipophilicity, logD of compound at pH 7.4 by shake flask method; format: physicochemical; conditions: buffer
Mus musculus [18] = assay: Effect on body weight in anorexia/cachexia mouse model assessed as reduction in cumulative food intake at 10 mg/kg, po administered twice a day for 20 days and measured at 1 to 21 days; format: functional; set-up: scale not given: the % may be the effect or the level left; conditions: time 20 day
Mus musculus [19] = assay: Effect on body weight in anorexia/cachexia mouse model assessed as reduction in cumulative food intake at 1 mg/kg, po administered twice a day for 20 days and measured at 1 to 21 days; format: functional; set-up: scale not given: the % may be the effect or the level left; conditions: time 1-21 day
[20] = target: High affinity cGMP-specific 3',5'-cyclic phosphodiesterase 9A (Homo sapiens, UniProt O76083); assay: Inhibition of human PDE9A1
Chain of High affinity cGMP-specific 3',5'-cyclic phosphodiesterase 9A (O76083 whole entry): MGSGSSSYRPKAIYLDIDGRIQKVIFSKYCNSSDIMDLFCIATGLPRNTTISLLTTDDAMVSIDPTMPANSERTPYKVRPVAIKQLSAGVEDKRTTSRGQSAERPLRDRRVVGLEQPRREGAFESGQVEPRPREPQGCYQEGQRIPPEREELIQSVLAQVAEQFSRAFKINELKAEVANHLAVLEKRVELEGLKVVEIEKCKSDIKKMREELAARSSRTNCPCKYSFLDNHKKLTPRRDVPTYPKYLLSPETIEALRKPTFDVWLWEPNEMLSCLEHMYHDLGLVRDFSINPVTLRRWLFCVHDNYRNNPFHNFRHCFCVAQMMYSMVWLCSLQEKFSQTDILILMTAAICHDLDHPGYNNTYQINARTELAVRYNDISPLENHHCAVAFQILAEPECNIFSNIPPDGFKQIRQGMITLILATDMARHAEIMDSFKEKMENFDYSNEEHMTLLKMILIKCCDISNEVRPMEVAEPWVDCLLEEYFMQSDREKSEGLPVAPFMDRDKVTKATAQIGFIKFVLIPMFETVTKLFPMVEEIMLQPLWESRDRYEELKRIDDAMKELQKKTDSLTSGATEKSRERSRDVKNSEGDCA

[21] = target: cGMP-inhibited 3',5'-cyclic phosphodiesterase 3A (Homo sapiens, UniProt Q14432); assay: Inhibition of human PDE3A
Chain of cGMP-inhibited 3',5'-cyclic phosphodiesterase 3A (Q14432 whole entry): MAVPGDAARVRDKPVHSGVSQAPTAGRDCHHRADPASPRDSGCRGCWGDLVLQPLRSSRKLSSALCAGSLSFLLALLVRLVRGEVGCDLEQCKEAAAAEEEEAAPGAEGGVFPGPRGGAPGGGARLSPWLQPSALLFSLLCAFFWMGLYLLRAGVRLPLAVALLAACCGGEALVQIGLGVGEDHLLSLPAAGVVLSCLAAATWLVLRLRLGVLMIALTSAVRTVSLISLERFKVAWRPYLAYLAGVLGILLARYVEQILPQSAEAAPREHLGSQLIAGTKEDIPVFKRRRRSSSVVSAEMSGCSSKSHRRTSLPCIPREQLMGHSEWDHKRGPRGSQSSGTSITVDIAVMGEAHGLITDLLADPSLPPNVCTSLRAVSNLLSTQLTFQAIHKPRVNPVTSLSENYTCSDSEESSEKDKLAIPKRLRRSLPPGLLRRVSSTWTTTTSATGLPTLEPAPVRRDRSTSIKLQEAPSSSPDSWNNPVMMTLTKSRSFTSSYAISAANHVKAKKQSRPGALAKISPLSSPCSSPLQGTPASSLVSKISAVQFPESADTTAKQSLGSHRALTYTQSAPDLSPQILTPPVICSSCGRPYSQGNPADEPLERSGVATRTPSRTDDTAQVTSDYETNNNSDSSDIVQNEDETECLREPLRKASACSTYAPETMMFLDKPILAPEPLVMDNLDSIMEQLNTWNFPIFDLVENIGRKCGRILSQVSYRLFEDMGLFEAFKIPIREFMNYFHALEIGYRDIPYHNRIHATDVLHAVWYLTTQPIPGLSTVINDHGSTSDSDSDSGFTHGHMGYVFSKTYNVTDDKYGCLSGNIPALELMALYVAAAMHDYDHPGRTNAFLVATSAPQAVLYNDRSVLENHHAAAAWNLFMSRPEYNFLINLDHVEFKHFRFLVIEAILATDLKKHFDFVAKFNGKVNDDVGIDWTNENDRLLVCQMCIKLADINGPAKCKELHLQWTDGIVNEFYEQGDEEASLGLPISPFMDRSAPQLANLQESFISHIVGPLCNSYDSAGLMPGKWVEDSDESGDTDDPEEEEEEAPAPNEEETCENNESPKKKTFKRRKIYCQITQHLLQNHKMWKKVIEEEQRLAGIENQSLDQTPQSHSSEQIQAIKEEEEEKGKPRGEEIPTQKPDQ

[22] = AUC (0 to infinity) in Wistar Han rat at 5 mg/kg, po measured at 0.083 to 24 hrs by LC-MS/MS analysis; format: ADME, organism-based; set-up: dose 5 mg/kg, time 0.083-24 hrs, route po; conditions: in vivo
[23] = Cmax in Beagle dog at 1 mg/kg, po measured at 0.25 to 24 hrs by LC-MS/MS analysis; format: ADME, organism-based, Canis lupus familiaris; set-up: dose 1 mg/kg, time 0.25-24 hrs, route po; conditions: in vivo
[24] = Half life in Beagle dog at 1 mg/kg, po measured at 0.25 to 24 hrs by LC-MS/MS analysis; format: ADME, organism-based, Canis lupus familiaris; conditions: in vivo, time 0.25-24 hrs
Melanocortin receptor 4 = Melanocortin receptor 4 (Rattus norvegicus, UniProt P70596); assay: Displacement of [125I]-NDP-alpha-MSH from rat MC4R expressed in CHO cells by microbeta counter analysis; format: cell-based
Mus musculus [25] = assay: Effect on body weight in anorexia/cachexia mouse model assessed as cumulative body weight gain at 1 mg/kg, po administered twice a day for 20 days and measured at 1 to 21 days; format: functional; conditions: time 1-21 day
[26] = Octanol-water distribution coefficient, logD of the compound at pH 7.4 by RP-HPLC analysis; format: physicochemical
[27] = Clearance in Wistar Han rat plasma at 1 mg/kg, iv measured at 0.033 to 24 hrs by LC-MS/MS analysis; format: ADME, organism-based; conditions: time 0.033-24 hrs
[28] = Oral bioavailability in Wistar Han rat at 5 mg/kg measured at 0.083 to 24 hrs by LC-MS/MS analysis; format: ADME, organism-based; conditions: in vivo, time 0.083-24 hrs
Mus musculus [29] = assay: Effect on body weight in anorexia/cachexia mouse model assessed as cumulative body weight gain at 10 mg/kg, po administered twice a day for 20 days and measured at 1 to 21 days; format: functional; conditions: time 1-21 day
[30] = target: 3',5'-cyclic-AMP phosphodiesterase 4D (Homo sapiens, UniProt Q08499); assay: Inhibition of human PDE4D3
Chain of 3',5'-cyclic-AMP phosphodiesterase 4D (Q08499 whole entry): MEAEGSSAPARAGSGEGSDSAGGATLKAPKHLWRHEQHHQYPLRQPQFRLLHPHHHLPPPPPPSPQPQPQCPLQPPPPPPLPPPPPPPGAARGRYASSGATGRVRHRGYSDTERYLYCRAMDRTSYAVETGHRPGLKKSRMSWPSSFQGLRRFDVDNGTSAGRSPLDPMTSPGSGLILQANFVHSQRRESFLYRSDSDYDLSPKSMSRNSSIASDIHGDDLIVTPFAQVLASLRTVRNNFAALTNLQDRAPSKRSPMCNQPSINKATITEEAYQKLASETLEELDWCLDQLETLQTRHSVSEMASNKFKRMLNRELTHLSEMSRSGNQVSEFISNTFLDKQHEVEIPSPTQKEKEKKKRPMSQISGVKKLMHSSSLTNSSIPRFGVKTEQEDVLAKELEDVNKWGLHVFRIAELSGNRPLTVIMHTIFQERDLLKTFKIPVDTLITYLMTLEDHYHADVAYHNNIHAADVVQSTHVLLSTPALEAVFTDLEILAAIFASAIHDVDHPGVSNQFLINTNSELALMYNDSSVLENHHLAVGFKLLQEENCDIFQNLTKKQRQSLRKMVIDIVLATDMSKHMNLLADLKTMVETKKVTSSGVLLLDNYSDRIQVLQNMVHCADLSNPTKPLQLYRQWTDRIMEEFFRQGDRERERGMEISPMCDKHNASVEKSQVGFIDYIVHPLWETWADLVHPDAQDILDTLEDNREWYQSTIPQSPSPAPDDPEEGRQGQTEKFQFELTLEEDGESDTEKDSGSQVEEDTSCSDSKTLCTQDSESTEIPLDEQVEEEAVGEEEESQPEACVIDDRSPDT

Mus musculus [31] = assay: Effect on body weight in anorexia/cachexia mouse model assessed as cumulative body weight gain at 0.3 mg/kg, po administered twice a day for 20 days and measured at 1 to 21 days; format: functional; conditions: time 1-21 day
Phosphodiesterase 6 = assay: Inhibition of human PDE6; format: protein assay
[32] = Tmax in Wistar Han rat at 5 mg/kg, po measured at 0.083 to 24 hrs by LC-MS/MS analysis; format: ADME, organism-based; conditions: in vivo, time 0.083-24 hrs
[33] = target: T1, Melanocyte-stimulating hormone receptor (Homo sapiens, UniProt Q01726); assay: Agonist activity at human MC1R expressed in CHO cells assessed as increase in alpha-MSH induced cAMP level measured for 60 mins; format: functional, cell-based
[34] = Passive apparent permeability in MDCKII-LE cells; format: ADME, cell-based, Canis lupus familiaris; conditions: dog, MDCK; read-out: permeability (converted)
[35] = target: T1, Melanocyte-stimulating hormone receptor; assay: Displacement of [125I]-NDP-alpha-MSH from human MC1R expressed in CHO cells measured for 2 hrs by microbeta counter analysis; format: cell-based
[36] = Volume of distribution at steady state in Wistar Han rat at 1 mg/kg, iv measured at 0.033 to 24 hrs by LC-MS/MS analysis; format: ADME, organism-based; conditions: in vivo, time 0.033-24 hrs, read-out: Vdss
Cytochrome P450 3A = Cytochrome P450 3A (Homo sapiens, UniProt P08684+P20815+Q9HB55+P24462); assay: Time dependent inhibition of CYP3A (unknown origin) at 10 uM relative to control; format: ADME, protein assay
[37] = Volume of distribution at steady state in Beagle dog at 1 mg/kg, iv measured at 0.033 to 24 hrs by LC-MS/MS analysis; format: ADME, organism-based, Canis lupus familiaris; conditions: in vivo, time 0.033-24 hrs, read-out: Vdss

IC50 [1]: > 50 µM
IC50 [3]: > 50 µM
AUC [4]: 1660 ng·h/mL
IC50 [6]: > 50 µM
clearance [7]: 11 mL/min/kg
Cmax [8]: 600 ng/mL
IC50 [9]: > 50 µM
Activity [10]: inactive
AUC(0-t) [11]: 1640 ng·h/mL
IC50 [13]: > 50 µM
half-life [14]: 2.3 h
IC50 [16]: > 50 µM
logD [17]: 2.6
IC50 [20]: > 50 µM
IC50 [21]: > 50 µM
AUC(0-inf) [22]: 1120 ng·h/mL
Cmax [23]: 1470 ng/mL
half-life [24]: 3.6 h
Ki (Melanocortin receptor 4): 0.00052 µM
logD [26]: 2.6
clearance [27]: 21 mL/min/kg
bioavailability [28]: 28%
IC50 [30]: > 50 µM
IC50 (Phosphodiesterase 6): > 50 µM
Tmax [32]: 0.5 h
Activity [33]: inactive
Papp [34]: 0.467 ×10⁻⁶ cm/s
Ki [35]: > 1.6 µM
Vd [36]: 0.95 L/kg
K (Cytochrome P450 3A): 0.09 min⁻¹
Vd [37]: 1.3 L/kg
SMILES: COc1cc([C@@H](C)C(=O)N2CC[C@@]3(COc4cc(-c5ncccn5)c(C)nc4N3)C2)c(F)cn1
Activity (Mus musculus [2]): 9%
IC50 [5]: > 100 µM
Activity (Mus musculus [12]): 23%
Activity (Mus musculus [15]): 40%
Activity (Mus musculus [18]): 111%
Activity (Mus musculus [19]): 26%
Activity (Mus musculus [25]): 5%
Activity (Mus musculus [29]): 22%
Activity (Mus musculus [31]): 2%
